Assay results as given in patent EP4670717A1, “PYRROLIDINE-FUSED MYRTANOL DERIVATIVES AS INHIBITORS AND/OR DEGRADERS OF IDO1 UND USE THEREOF” (Max-Planck-Gesellschaft zur Förderung der Wissenschaften …, priority 2024, dated 2025).

Biological target: T1, IDO1 (Homo sapiens, UniProt P14902)
T1 construct: BxPC3 cells were seeded in phenol red-free RPMI 1640 medium; endogenous in cells; host or cells: BxPC3 cells stimulated with IFN-γ (50 ng/mL)
Assay: Kyn assay in BxPC-3 cells (Kyn levels after IFN-γ and Trp);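 also: kyn levels expressed relative to DMSO-treated control cells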
Type: cell-based
Settings: BxPC-3 cells incubated with IFN-γ, Trp and the compounds for 48 h; read-out: Kyn assay IC50 ± SD
Method: BxPC3 cells were seeded in phenol red-free RPMI 1640 medium in 1536-well or 384-well plates (Greiner #782086, Corning #3770) 24 h prior to the addition of compounds, IFN-γ (50 ng/mL, PeproTech) and L-Trp (380 µM, Sigmal-Aldrich). After 48 h of incubation, first cell viability was accessed by the addition of Hoechst-33342. Afterwards, trichloroacetic acid (TCA, Sigma-Aldrich) was added to a final concentration of 7 % and incubated for 10 min prior to a centrifugation step of 10 min at 1620 × g. Kyn levels were determined by means of the Kyn sensor^7 at a final concentration of 17.5 µM in sensor buffer (50 mM H3PO4 and 120 mM NaCl (pH=1)). Fluorescence intensity (excitation: 535 nm, emission: 595 nm) was measured using a Spectramax Paradigm reader (Molecular Devices). Data were normalized to the values for cells that were treated with DMSO.
For the manual assay, BxPC3 or SKOV3 cells were seeded in clear 96-well or 384-well plates, respectively, 24 h prior to compound treatment and IFN-γ (50 or 5 ng/mL, respectively) and L-Trp (380 µM) addition as described before.^7 48 h after treatment, TCA was added and Kyn levels were detected by means of 2 % w/v of p-DMAB (Ehrlich reagent) in acetic acid as described by Braun et al^29. The absorbance of the Ehrlich reagent was detected at 492 nm and at 650 nm as background control was measured on Spark® multimode microplate plate reader (Tecan, Austria). Kyn levels were determined by subtracting the absorbance value at 650 nm and presented relative to the DMSO control. Dose-response curves and IC50 values were generated and fitted with GraphPad Prism 6.0 (GraphPad software, USA) using four-parameter variable slope non-linear regression curve fit.
Cells were incubated with IFN-γ, Trp and the compounds for 48 h prior to detection of Kyn levels.

T1 sequence (P14902 whole entry): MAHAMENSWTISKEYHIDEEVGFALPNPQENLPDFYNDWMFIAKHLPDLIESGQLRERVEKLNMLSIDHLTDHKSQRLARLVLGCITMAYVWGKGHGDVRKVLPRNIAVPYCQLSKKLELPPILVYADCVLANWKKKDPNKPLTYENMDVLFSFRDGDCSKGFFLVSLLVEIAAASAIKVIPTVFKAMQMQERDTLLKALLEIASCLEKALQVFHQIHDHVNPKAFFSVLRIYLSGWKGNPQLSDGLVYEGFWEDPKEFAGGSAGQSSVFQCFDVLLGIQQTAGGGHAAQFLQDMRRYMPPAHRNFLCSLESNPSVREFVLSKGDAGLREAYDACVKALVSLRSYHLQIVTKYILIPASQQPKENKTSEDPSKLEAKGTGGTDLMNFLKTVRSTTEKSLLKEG

**Q.** With `COC(=O)C(C)(C)c1ccc(S(=O)(=O)N2C[C@H]3C[C@H]4C[C@H](C4(C)C)[C@@]3(COC(=O)Nc3ccc(I)cc3)C2)c(OC)c1` [compound 66, Methyl 2-(4-(((3aS,4R,6R,7aS)-3a-((((4-iodophenyl)carbamoyl)oxy)methyl)-5,5-dimethyloctahydro-2H-4,6-methanoisoindol-2-yl)sulfonyl)-3-methoxyphenyl)-2-methylpropanoate] as the compound, how does the IC50 read?
**A.** < 0.2 µM

**Q.** `CCC(C)(C)c1ccc(S(=O)(=O)N2C[C@H]3C[C@H]4C[C@H](C4(C)C)[C@@]3(COC(=O)Nc3ccc(I)cc3)C2)cc1` [compound 48, ((3aS,4R,6R,7aS)-5,5-dimethyl-2-((4-(tert-pentyl)phenyl)sulfonyl)octahydro-3aH-4,6-methanoisoindol-3a-yl)methyl (4-iodophenyl)carbamate] was tested. Which IC50 did it give?
**A.** < 0.2 µM

**Q.** How did the IC50 turn out when `CC(C)(C)c1ccc(S(=O)(=O)N2C[C@H]3C[C@H]4C[C@H](C4(C)C)[C@@]3(COC(=O)Nc3ccc(Br)cc3)C2)cc1` [compound 10, ((3aS,4R,6R,7aS)-2-((4-(tert-butyl)phenyl)sulfonyl)-5,5-dimethyloctahydro-3aH-4,6-methanoisoindol-3a-yl)methyl (4-bromophenyl)carbamate] was run?
**A.** 0.2 to 1 µM

**Q.** For `COCCOCC(C)(C)c1ccc(S(=O)(=O)N2C[C@H]3C[C@H]4C[C@H](C4(C)C)[C@@]3(COC(=O)Nc3ccc(I)cc3)C2)cc1` [compound 58, ((3aS,4R,6R,7aS)-2-((4-(1-(2-methoxyethoxy)-2-methylpropan-2-yl)phenyl)sulfonyl)-5,5-dimethyloctahydro-3aH-4,6-methanoisoindol-3a-yl)methyl (4-iodophenyl)carbamate], which IC50 is on record?
**A.** < 0.2 µM

**Q.** `CC(C)(C)c1ccc(S(=O)(=O)N2C[C@H]3C[C@H]4C[C@H](C4(C)C)[C@@]3(COC(=O)Nc3ccccc3)C2)cc1` [compound 6, ((3aS,4R,6R,7aS)-2-((4-(tert-butyl)phenyl)sulfonyl)-5,5-dimethyloctahydro-3aH-4,6-methanoisoindol-3a-yl)methyl phenylcarbamate] was tested. Which IC50 did it give?
**A.** 5 to 10 µM

**Q.** Which IC50 does the source give for `CN(C)C(=O)C(C)(C)c1ccc(S(=O)(=O)N2C[C@H]3C[C@H]4C[C@H](C4(C)C)[C@@]3(COC(=O)Nc3ccc(I)cc3)C2)cc1` [compound 60, ((3aS,4R,6R,7aS)-2-((4-(1-(dimethylamino)-2-methyl-1-oxopropan-2-yl)phenyl)sulfonyl)-5,5-dimethyloctahydro-3aH-4,6-methanoisoindol-3a-yl)methyl (4-iodophenyl)carbamate] here?
**A.** 0.2 to 1 µM

**Q.** Which IC50 does the source give for `CC(C)(C)c1ccc(S(=O)(=O)N2C[C@H]3C[C@H]4C[C@H](C4(C)C)[C@@]3(COC(=O)Nc3ccccc3Br)C2)cc1` [compound 13, ((3aS,4R,6R,7aS)-2-((4-(tert-butyl)phenyl)sulfonyl)-5,5-dimethyloctahydro-3aH-4,6-methanoisoindol-3a-yl)methyl (2-bromophenyl)carbamate] here?
**A.** 0.2 to 1 µM

**Q.** With `CC(C)(C(=O)N1CCOCC1)c1ccc(S(=O)(=O)N2C[C@H]3C[C@H]4C[C@H](C4(C)C)[C@@]3(COC(=O)Nc3ccc(I)cc3)C2)cc1` [compound 59, ((3aS,4R,6R,7aS)-5,5-dimethyl-2-((4-(2-methyl-1-morpholino-1-oxopropan-2-yl)phenyl)sulfonyl)octahydro-3aH-4,6-methanoisoindol-3a-yl)methyl (4-iodophenyl)carbamate] as the compound, how does the IC50 read?
**A.** 5 to 10 µM

**Q.** `Cc1ccc(NC(=O)OC[C@]23CN(S(=O)(=O)c4ccc(OC(F)(F)F)cc4)C[C@H]2C[C@H]2C[C@@H]3C2(C)C)cc1` [compound 34, ((3aS,4R,6R,7aS)-5,5-dimethyl-2-((4-(trifluoromethoxy)phenyl)sulfonyl)octahydro-3aH-4,6-methanoisoindol-3a-yl)methyl p-tolylcarbamate] was tested. Which IC50 did it give?
**A.** 1 to 5 µM

**Q.** `CC1(C)[C@H]2C[C@@H]3CN(S(=O)(=O)c4ccc5ccccc5c4)C[C@]3(COC(=O)Nc3ccc(I)cc3)[C@@H]1C2` [compound 38, ((3aS,4R,6R,7aS)-5,5-dimethyl-2-(naphthalen-2-ylsulfonyl)octahydro-3aH-4,6-methanoisoindol-3a-yl)methyl (4-iodophenyl)carbamate] was tested. Which IC50 did it give?
**A.** 0.2 to 1 µM

**Q.** `Cc1ccc(NC(=O)OC[C@]23CN(S(=O)(=O)c4ccccc4Br)C[C@H]2C[C@H]2C[C@@H]3C2(C)C)cc1` [compound 36, ((3aS,4R,6R,7aS)-2-((2-bromophenyl)sulfonyl)-5,5-dimethyloctahydro-3aH-4,6-methanoisoindol-3a-yl)methyl p-tolylcarbamate] was tested. Which IC50 did it give?
**A.** 5 to 10 µM

**Q.** Which IC50 does the source give for `COc1ccc(NC(=O)OC[C@]23CN(S(=O)(=O)c4ccc(C(C)(C)C)cc4)C[C@H]2C[C@H]2C[C@@H]3C2(C)C)cc1` [compound 20, ((3aS,4R,6R,7aS)-2-((4-(tert-butyl)phenyl)sulfonyl)-5,5-dimethyloctahydro-3aH-4,6-methanoisoindol-3a-yl)methyl (4-methoxyphenyl)carbamate] here?
**A.** 1 to 5 µM

**Q.** `CCc1ccc(NC(=O)OC[C@]23CN(S(=O)(=O)c4ccc(C(C)(C)C)cc4)C[C@H]2C[C@H]2C[C@@H]3C2(C)C)cc1` [compound 2, ((3aS,4R,6R,7aS)-2-((4-(tert-butyl)phenyl)sulfonyl)-5,5-dimethyloctahydro-3aH-4,6-methanoisoindol-3a-yl)methyl (4-ethylphenyl)carbamate] was tested. Which IC50 did it give?
**A.** 1 to 5 µM

**Q.** For `CC(C)(C)c1ccc(S(=O)(=O)N2C[C@H]3C[C@H]4C[C@H](C4(C)C)[C@@]3(COC(=O)Nc3ccc(C#CCCO)cc3)C2)cc1` [compound 18, ((3aS,4R,6R,7aS)-2-((4-(tert-butyl)phenyl)sulfonyl)-5,5-dimethyloctahydro-3aH-4,6-methanoisoindol-3a-yl)methyl (4-(4-hydroxybut-1-yn-1-yl)phenyl)carbamate], which IC50 is on record?
**A.** 1 to 5 µM

**Q.** How did the IC50 turn out when `CC1(C)[C@H]2C[C@@H]3CN(S(=O)(=O)c4ccc(C5CCCCC5)cc4)C[C@]3(COC(=O)Nc3ccc(I)cc3)[C@@H]1C2` [compound 45, ((3aS,4R,6R,7aS)-2-((4-cyclohexylphenyl)sulfonyl)-5,5-dimethyloctahydro-3aH-4,6-methanoisoindol-3a-yl)methyl (4-iodophenyl)carbamate] was run?
**A.** 1 to 5 µM

**Q.** With `CC(C)(C)c1ccc(S(=O)(=O)N2C[C@H]3C[C@H]4C[C@H](C4(C)C)[C@@]3(COC(=O)Nc3cccc(Br)c3)C2)cc1` [compound 14, ((3aS,4R,6R,7aS)-2-((4-(tert-butyl)phenyl)sulfonyl)-5,5-dimethyloctahydro-3aH-4,6-methanoisoindol-3a-yl)methyl (3-bromophenyl)carbamate] as the compound, how does the IC50 read?
**A.** 5 to 10 µM

**Q.** With `CN(C)CC(C)(C)c1ccc(S(=O)(=O)N2C[C@H]3C[C@H]4C[C@H](C4(C)C)[C@@]3(COC(=O)Nc3ccc(I)cc3)C2)cc1` [compound 61, ((3aS,4R,6R,7aS)-2-((4-(1-(dimethylamino)-2-methylpropan-2-yl)phenyl)sulfonyl)-5,5-dimethyloctahydro-3aH-4,6-methanoisoindol-3a-yl)methyl (4-iodophenyl)carbamate] as the compound, how does the IC50 read?
**A.** 1 to 5 µM

**Q.** `Cc1ccc(NC(=O)OC[C@]23CN(S(=O)(=O)C(C)C)C[C@H]2C[C@H]2C[C@@H]3C2(C)C)cc1` [compound 30, ((3aS,4R,6R,7aS)-2-(isopropylsulfonyl)-5,5-dimethyloctahydro-3aH-4,6-methanoisoindol-3a-yl) methyl p-tolylcarbamate] was tested. Which IC50 did it give?
**A.** 1 to 5 µM

**Q.** How did the IC50 turn out when `CC(C)c1ccc(S(=O)(=O)N2C[C@H]3C[C@H]4C[C@H](C4(C)C)[C@@]3(COC(=O)Nc3ccc(I)cc3)C2)cc1` [compound 43, ((3aS,4R,6R,7aS)-2-((4-isopropylphenyl)sulfonyl)-5,5-dimethyloctahydro-3aH-4,6-methanoisoindol-3a-yl)methyl (4-iodophenyl)carbamate] was run?
**A.** < 0.2 µM

**Q.** For `Cc1ccccc1S(=O)(=O)N1C[C@H]2C[C@H]3C[C@H](C3(C)C)[C@@]2(COC(=O)Nc2ccc(I)cc2)C1` [compound 39, ((3aS,4R,6R,7aS)-5,5-dimethyl-2-(o-tolylsulfonyl)octahydro-3aH-4,6-methanoisoindol-3a-yl)methyl (4-iodophenyl)carbamate], which IC50 is on record?
**A.** 0.2 to 1 µM

**Q.** With `Cc1ccc(S(=O)(=O)N2C[C@H]3C[C@H]4C[C@H](C4(C)C)[C@@]3(COC(=O)Nc3ccc(I)cc3)C2)cc1` [compound 41, ((3aS,4R,6R,7aS)-5,5-dimethyl-2-tosyloctahydro-3aH-4,6-methanoisoindol-3a-yl)methyl (4-iodophenyl)carbamate] as the compound, how does the IC50 read?
**A.** 0.2 to 1 µM

**Q.** With `CC(C)(C)c1ccc(S(=O)(=O)N2C[C@H]3C[C@H]4C[C@H](C4(C)C)[C@@]3(COC(=O)Nc3ccc(Cl)cc3)C2)cc1` [compound 9, ((3aS,4R,6R,7aS)-2-((4-(tert-butyl)phenyl)sulfonyl)-5,5-dimethyloctahydro-3aH-4,6-methanoisoindol-3a-yl)methyl (4-chlorophenyl)carbamate] as the compound, how does the IC50 read?
**A.** 0.2 to 1 µM

**Q.** How did the IC50 turn out when `CC1(C)CCC(C)(C)c2cc(S(=O)(=O)N3C[C@H]4C[C@H]5C[C@H](C5(C)C)[C@@]4(COC(=O)Nc4ccc(I)cc4)C3)ccc21` [compound 46] was run?
**A.** 0.2 to 1 µM

**Q.** With `CC1(C)[C@H]2C[C@@H]3CN(S(=O)(=O)c4ccc([Si](C)(C)C)cc4)C[C@]3(COC(=O)Nc3ccc(I)cc3)[C@@H]1C2` [compound 50, ((3aS,4R,6R,7aS)-5,5-dimethyl-2-((4-(trimethylsilyl)phenyl)sulfonyl)octahydro-3aH-4,6-methanoisoindol-3a-yl)methyl (4-iodophenyl)carbamate] as the compound, how does the IC50 read?
**A.** 0.2 to 1 µM

**Q.** `Cc1ccc(NC(=O)OC[C@]23CN(S(=O)(=O)C4CCCCC4)C[C@H]2C[C@H]2C[C@@H]3C2(C)C)cc1` [compound 31, ((3aS,4R,6R,7aS)-2-(cyclohexylsulfonyl)-5,5-dimethyloctahydro-3aH-4,6-methanoisoindol-3a-yl)methyl p-tolylcarbamate] was tested. Which IC50 did it give?
**A.** 5 to 10 µM

**Q.** How did the IC50 turn out when `CC(C)(C)c1ccc(S(=O)(=O)N2C[C@H]3C[C@H]4C[C@H](C4(C)C)[C@@]3(COC(=O)Nc3ccc(C#N)cc3)C2)cc1` [compound 23, ((3aS,4R,6R,7aS)-2-((4-(tert-butyl)phenyl)sulfonyl)-5,5-dimethyloctahydro-3aH-4,6-methanoisoindol-3a-yl)methyl (4-cyanophenyl)carbamate] was run?
**A.** 1 to 5 µM
